Measurements reported in publication PMC8151276, “An Integrated Approach toward NanoBRET Tracers for Analysis of GPCR Ligand Engagement” (Molecules, 2021).

Experiments:
Assay type in all cases: binding
GRM8 = molecular target: T1, GRM8 (Homo sapiens, UniProt O00222); assay: NanoBRET screen HiBiT-GRM8 in HEK293
T1 construct: purchased Promega (in-house HiBiT-GPCR construct library, NanoBRET)
Experimental: (§1) Each tracer candidate was screened across the entire library of HiBiT-GPCR constructs using NanoBRET as the detection modality. As depicted in Figure 4A, the specificity of interactions was evaluated through decrease in BRET due to competitive displacement of a bound tracer by excess parental compound. Each tracer was analyzed for binding to each HiBiT-GPCR fusion in the absence and in the presence of competing parental compound. Briefly, HEK293 cells were transfected with HiBiT-GPCR constructs diluted into promoterless DNA to reduce expression and maximize translocation to the cell surface. Each tracer candidate was then screened at concentrations of 1 μM and 0.1 μM across cells expressing these fusions. Cells were treated for 1.5 h with tracer either alone or in the presence of 20 μM competing parental compound (i.e., control). BRET was measured upon addition of purified LgBiT and subsequent complementation with HiBiT genetically fused to a GPCR. The specificity of interactions was assessed through a decrease in BRET signal due to competitive displacement of the bound tracer. To further gauge the robustness of these interactions, the fold response over the control (i.e., BRETtracer/BRETcontrol) was calculated. We chose a 1.5-fold response, which translates to ≥7-fold signal over noise as the minimal threshold required to score an interaction as positive. […]. Below we highlight the screening results obtained for our exemplary fluorescent tracers based on Clozapine, Amitriptyline and AZD1283.
(§2) HiBiT-GPCR DNA constructs were diluted in 10 mM Tris pH 8 to a final concentration of 0.01 μg/μL, arrayed in 96-well plates and stored at −20 °C. For transfection, HEK293 cells were suspended in Opti-MEM (without phenol red) supplemented with 2% fetal bovine serum (Seradigm) and 100 units/mL penicillin–streptomycin (Gibco) at a final concentration of 220,000 cells/mL and dispensed into white 96-well plates at 90 μL/well. Subsequent transfections and screens were carried using an Agilent Bravo Automated Liquid Handling Platform. First, the 96-well HiBiT DNA arrays were diluted 25-fold in Opti-MEM (without serum or phenol red) to a final concentration of 0.0004 μg/μL and 20 μL of the diluted DNAs were transferred into new 96-well plates. Next, promoterless carrier DNA (1 μg/μL) was diluted 25-fold (0.04 μg/μL) and then dispensed into the diluted arrays at 20 μL/well. Following brief mixing, Viafect transfection reagent (Promega) diluted 16-fold into Opti-MEM was dispensed into the plates at 40 μL/well. After mixing by pipetting, plates were incubated for 10 min on the pipetting station deck. The DNA-transfection reagent complexes were then added to plates containing cells. To facilitate the screen, 10 μL of DNA-transfection reagent complexes were added in duplicates to the top 4 and bottom 4 rows, resulting in two identical 48-well arrays per plate. Plates with transfected cells were incubated for 18–20 h at 37 °C/5% CO2. A screen of each tracer across the entire library using two different concentrations requires duplicate plates of transfected cells. Depending on the number of tracers being screened, transfections can be scaled up using the same ratios. The next day, for each tracer, four 20× screening solutions in tracer dilution buffer (Promega) were prepared: two duplicates at final concentration of 20 μM and two duplicates at a final concentration of 2 μM. A competing unmodified compound was added to one of each duplicate at a final concentration of 400 μM. The four resulting solutions were diluted 4-fold in Opti-MEM without serum or phenol red to generate 5× solutions (5 µM and 0.5 µM tracer +/− 100 μM competing compound). To screen the library, a BioTek MultiFlo FX liquid dispenser was used to dispense 22.5 µL of tracer solution to the top 4 rows and 22.5 µL tracer + competing compound solution to the 4 bottom rows. Plates were briefly mixed on an orbital shaker and incubated for 1.5 h at room temperature. […]

CCR6 = molecular target: T2, CCR6 (Homo sapiens, UniProt P51684); assay: NanoBRET screen HiBiT-CCR6 in HEK293
T2 construct: purchased Promega (in-house HiBiT-GPCR construct library, NanoBRET)
T2 sequence (P51684 1-374): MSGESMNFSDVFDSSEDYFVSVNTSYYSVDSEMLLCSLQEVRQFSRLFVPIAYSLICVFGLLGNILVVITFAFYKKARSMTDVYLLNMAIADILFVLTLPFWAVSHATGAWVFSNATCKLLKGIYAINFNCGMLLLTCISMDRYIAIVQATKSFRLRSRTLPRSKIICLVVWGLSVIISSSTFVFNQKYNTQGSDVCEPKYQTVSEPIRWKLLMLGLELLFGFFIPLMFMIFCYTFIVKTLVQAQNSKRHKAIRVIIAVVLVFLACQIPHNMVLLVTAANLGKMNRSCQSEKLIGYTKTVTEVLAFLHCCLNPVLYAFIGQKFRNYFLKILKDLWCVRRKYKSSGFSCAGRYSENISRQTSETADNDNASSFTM
Experimental: as §1, §2

CXCR2 = molecular target: T3, CXCR2 (Homo sapiens, UniProt P25025); assay: NanoBRET screen HiBiT-CXCR2 in HEK293
T3 construct: purchased Promega (in-house HiBiT-GPCR construct library, NanoBRET)
T3 sequence (P25025 1-360): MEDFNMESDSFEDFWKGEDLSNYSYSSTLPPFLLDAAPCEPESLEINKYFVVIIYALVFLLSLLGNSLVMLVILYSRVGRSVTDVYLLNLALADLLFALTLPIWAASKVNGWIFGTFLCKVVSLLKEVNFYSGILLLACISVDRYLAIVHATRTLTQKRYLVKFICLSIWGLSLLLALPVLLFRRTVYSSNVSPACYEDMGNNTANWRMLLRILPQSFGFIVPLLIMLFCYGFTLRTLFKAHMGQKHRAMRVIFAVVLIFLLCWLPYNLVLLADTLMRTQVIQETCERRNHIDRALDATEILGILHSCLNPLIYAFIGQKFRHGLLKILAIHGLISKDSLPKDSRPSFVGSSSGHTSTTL
Experimental: as §1, §2

T1 sequence (O00222 34-908): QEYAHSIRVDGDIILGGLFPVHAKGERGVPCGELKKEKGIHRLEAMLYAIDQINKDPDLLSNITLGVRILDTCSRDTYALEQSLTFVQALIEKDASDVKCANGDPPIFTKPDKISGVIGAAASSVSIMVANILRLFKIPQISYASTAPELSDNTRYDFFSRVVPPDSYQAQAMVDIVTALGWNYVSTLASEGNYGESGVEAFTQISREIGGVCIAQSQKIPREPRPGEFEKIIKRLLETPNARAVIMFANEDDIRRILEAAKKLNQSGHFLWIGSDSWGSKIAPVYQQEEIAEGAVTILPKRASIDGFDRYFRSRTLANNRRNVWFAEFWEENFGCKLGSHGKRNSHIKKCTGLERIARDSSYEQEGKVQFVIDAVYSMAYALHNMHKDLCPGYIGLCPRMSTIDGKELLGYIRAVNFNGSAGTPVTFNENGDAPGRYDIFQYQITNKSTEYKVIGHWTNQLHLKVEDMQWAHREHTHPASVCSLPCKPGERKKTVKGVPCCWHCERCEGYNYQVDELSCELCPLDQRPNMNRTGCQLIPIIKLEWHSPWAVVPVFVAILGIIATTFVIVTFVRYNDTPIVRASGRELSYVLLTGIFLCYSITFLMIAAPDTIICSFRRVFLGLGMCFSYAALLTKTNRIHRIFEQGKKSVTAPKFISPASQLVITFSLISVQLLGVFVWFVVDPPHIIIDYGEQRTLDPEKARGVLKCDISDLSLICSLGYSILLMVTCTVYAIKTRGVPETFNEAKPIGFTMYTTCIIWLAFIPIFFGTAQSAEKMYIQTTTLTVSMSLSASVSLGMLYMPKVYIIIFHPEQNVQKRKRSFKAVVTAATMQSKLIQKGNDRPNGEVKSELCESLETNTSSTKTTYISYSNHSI

## COc1ccc2[nH]c(-c3ccc(CNC(=O)CCOCCOCCOCCOCCNC(=O)CCc4ccc5n4[B-](F)(F)[N+]4=C(c6ccc[nH]6)C=CC4=C5)cc3)c(CCNC(C)=O)c2n1 [AzomelatoninICO9-2-NB590]
GRM8; 0.1μM tracer
  NanoBRET Fold Response: 0.98
GRM8; 1μM tracer
  NanoBRET Fold Response: 0.98
CCR6; 0.1μM tracer
  NanoBRET Fold Response: 0.85
CCR6; 1μM tracer
  NanoBRET Fold Response: 1.20
CXCR2; 0.1μM tracer
  NanoBRET Fold Response: 1.38
CXCR2; 1μM tracer
  NanoBRET Fold Response: 1.00

## COc1ccccc1N1CCN(CCCCN2C(=O)c3ccc(CNC(=O)CCOCCOCCOCCOCCNC(=O)CCc4ccc5n4[B-](F)(F)[N+]4=C(c6ccc[nH]6)C=CC4=C5)cc3C2=O)CC1 [NAN-190-2-NB590]
GRM8; GRM8, tracer 0.1μM
  NanoBRET Fold Response: 1.02
CCR6; CCR6, tracer 0.1μM
  NanoBRET Fold Response: 0.99
CCR6; CCR6, tracer 1μM
  NanoBRET Fold Response: 1.02
CXCR2; CXCR2, tracer 0.1μM
  NanoBRET Fold Response: 1.08
CXCR2; CXCR2, tracer 1μM
  NanoBRET Fold Response: 0.92

## O=C(CCc1ccc2n1[B-](F)(F)[N+]1=C(c3ccc[nH]3)C=CC1=C2)NCCOCCOCCNC(=O)OCCOCCN1CCN(C2=Nc3ccccc3Sc3ccccc32)CC1 [Quetiapine-a-2-NB590]
GRM8; GRM8, tracer 0.1μM
  NanoBRET Fold Response: 0.98
GRM8; GRM8, tracer 1μM
  NanoBRET Fold Response: 1.00
CCR6; CCR6, tracer 0.1μM
  NanoBRET Fold Response: 1.05
CCR6; CCR6, tracer 1μM
  NanoBRET Fold Response: 0.95
CXCR2; CXCR2, tracer 0.1μM
  NanoBRET Fold Response: 1.03
CXCR2; CXCR2, tracer 1μM
  NanoBRET Fold Response: 0.97

## O=C(CCOCCOCCOCCOCCNC(=O)CCc1ccc2n1[B-](F)(F)[N+]1=C(c3ccc[nH]3)C=CC1=C2)NCCCN1CCN(C2=Nc3cc(Cl)ccc3Nc3ccccc32)CC1 [Clozapine-a-2-NB590]
GRM8; GRM8, 0.1μM tracer
  NanoBRET Fold Response: 1.01
GRM8; GRM8, 1μM tracer
  NanoBRET Fold Response: 1.00
CCR6; CCR6, 0.1μM tracer
  NanoBRET Fold Response: 1.05
CCR6; CCR6, 1μM tracer
  NanoBRET Fold Response: 0.97
CXCR2; CXCR2, 0.1μM tracer
  NanoBRET Fold Response: 1.02
CXCR2; CXCR2, 1μM tracer
  NanoBRET Fold Response: 0.87

## N#CN=C(NCCCOc1cccc(CN2CCCCC2)c1)NCCNC(=O)CCOCCOCCOCCOCCNC(=O)CCc1ccc2n1[B-](F)(F)[N+]1=C(c3ccc[nH]3)C=CC1=C2 [Aminopotentidine-2-NB590]
GRM8; GRM8, tracer 0.1μM
  NanoBRET Fold Response: 1.01
GRM8; GRM8, tracer 1μM
  NanoBRET Fold Response: 0.99
CCR6; CCR6, tracer 0.1μM
  NanoBRET Fold Response: 0.96
CCR6; CCR6, tracer 1μM
  NanoBRET Fold Response: 1.00
CXCR2; CXCR2, tracer 0.1μM
  NanoBRET Fold Response: 0.90
CXCR2; CXCR2, tracer 1μM
  NanoBRET Fold Response: 0.95

## O=C(CCc1ccc2n1[B-](F)(F)[N+]1=C(c3ccc[nH]3)C=CC1=C2)NCc1ccc(C(=O)NCCOCCOCCNCC(O)COc2cccc3ccccc23)cc1 (centres unmarked) [Propranolol-3-NB590]
GRM8; GRM8, 0.1μM
  NanoBRET Fold Response: 0.99
GRM8; GRM8, 1μM
  NanoBRET Fold Response: 1.00
CCR6; CCR6, 0.1μM
  NanoBRET Fold Response: 0.95
CCR6; CCR6, 1μM
  NanoBRET Fold Response: 1.02
CXCR2; CXCR2, 0.1μM
  NanoBRET Fold Response: 1.07
CXCR2; CXCR2, 1μM
  NanoBRET Fold Response: 1.03

## O=C(CCc1ccc2n1[B-](F)(F)[N+]1=C(c3ccc[nH]3)C=CC1=C2)NCc1ccc(C(=O)NCCOCCC(=O)N[C@@H]2CC[C@@]3(O)[C@H]4Cc5ccc(O)c6c5[C@@]3(CCN4CC3CC3)[C@H]2O6)cc1 [Naltrexone-3-NB590]
GRM8; GRM8, tracer 0.1μM
  NanoBRET Fold Response: 1.07
GRM8; GRM8, tracer 1μM
  NanoBRET Fold Response: 0.93
CCR6; CCR6, tracer 0.1μM
  NanoBRET Fold Response: 0.94
CCR6; CCR6, tracer 1μM
  NanoBRET Fold Response: 1.24
CXCR2; CXCR2, tracer 0.1μM
  NanoBRET Fold Response: 0.81
CXCR2; CXCR2, tracer 1μM
  NanoBRET Fold Response: 0.78

## COc1ccccc1N1CCN(CCCCN2C(=O)c3ccc(CNC(=O)CCOCCNC(=O)c4ccc(CNC(=O)CCc5ccc6n5[B-](F)(F)[N+]5=C(c7ccc[nH]7)C=CC5=C6)cc4)cc3C2=O)CC1 [NAN-190-3-NB590]
GRM8; GRM8, tracer 0.1μM
  NanoBRET Fold Response: 1.21
GRM8; GRM8, tracer 1μM
  NanoBRET Fold Response: 0.96
CCR6; CCR6, tracer 0.1μM
  NanoBRET Fold Response: 1.19
CCR6; CCR6, tracer 1μM
  NanoBRET Fold Response: 0.93
CXCR2; CXCR2, tracer 0.1μM
  NanoBRET Fold Response: 1.10
CXCR2; CXCR2, tracer 1μM
  NanoBRET Fold Response: 0.86

## Cc1cc2c(s1)Nc1ccccc1N=C2N1CCN(CCCNC(=O)CCOCCOCCOCCOCCNC(=O)CCc2ccc3n2[B-](F)(F)[N+]2=C(c4ccc[nH]4)C=CC2=C3)CC1 [Olanzapine-a-2-NB590]
GRM8; GRM8, tracer 0.1μM
  NanoBRET Fold Response: 0.97
GRM8; GRM8, tracer 1μM
  NanoBRET Fold Response: 1.04
CCR6; CCR6, tracer 0.1μM
  NanoBRET Fold Response: 1.00
CCR6; CCR6, tracer 1μM
  NanoBRET Fold Response: 1.21
CXCR2; CXCR2, tracer 0.1μM
  NanoBRET Fold Response: 0.97
CXCR2; CXCR2, tracer 1μM
  NanoBRET Fold Response: 1.08

## CCCn1c(=O)c2[nH]c(-c3ccc(OCC(=O)NCCNC(=O)CCOCCNC(=O)c4ccc(CNC(=O)CCc5ccc6n5[B-](F)(F)[N+]5=C(c7ccc[nH]7)C=CC5=C6)cc4)cc3)nc2n(CCC)c1=O [XAC-3-NB590]
GRM8; GRM8, tracer 0.1μM
  NanoBRET Fold Response: 0.99
GRM8; GRM8, tracer 1μM
  NanoBRET Fold Response: 1.04
CCR6; CCR6, tracer 0.1μM
  NanoBRET Fold Response: 1.00
CCR6; CCR6, tracer 1μM
  NanoBRET Fold Response: 1.26
CXCR2; CXCR2, tracer 0.1μM
  NanoBRET Fold Response: 1.22
CXCR2; CXCR2, tracer 1μM
  NanoBRET Fold Response: 0.70

## COc1ccc2c(n1)c(CCNC(C)=O)cn2CCNC(=O)CCc1ccc2n1[B-](F)(F)[N+]1=C(c3ccc[nH]3)C=CC1=C2 [Azamelatonin-1-NB590]
GRM8; 0.1μM tracer
  NanoBRET Fold Response: 0.96
GRM8; 1μM tracer
  NanoBRET Fold Response: 0.95
CCR6; 0.1μM tracer
  NanoBRET Fold Response: 0.86
CCR6; 1μM tracer
  NanoBRET Fold Response: 0.98
CXCR2; 0.1μM tracer
  NanoBRET Fold Response: 0.97
CXCR2; 1μM tracer
  NanoBRET Fold Response: 0.98
